Data reported in US10787436B2, “Inhibitors of cyclin-dependent kinase 7 (CDK7)” (Dana-Farber Cancer Institute, Inc., priority 2012, dated 2020).

Legend:
[1] = tested on: MV4-11; assay: Proliferation assay, CellTiter-Glo, 72 hour; format: cell-based; details: blood cancer cell line, read-out: Inhibition of proliferation, MV4-11
[2] = tested on: SKBR3; assay: Proliferation assay, CellTiter-Glo, 72 hour; format: cell-based; details: breast cancer cell line, read-out: Inhibition of proliferation, SKBR3
[3] = tested on: SAOS; assay: Proliferation assay, CellTiter-Glo, 72 hour; format: cell-based; details: osteosarcoma cell line, read-out: Inhibition of proliferation, SAOS
[4] = tested on: 143B; assay: Proliferation assay, CellTiter-Glo, 72 hour; format: cell-based; details: osteosarcoma cell line, read-out: Inhibition of proliferation, 143B
[5] = tested on: RS4-11; assay: Proliferation assay, CellTiter-Glo, 72 hour; format: cell-based; details: blood cancer cell line, read-out: Inhibition of proliferation, RS4-11
[6] = target: CDK7 (Homo sapiens (Human), UniProt P50613); assay: In vitro inhibitory activity against CDK7 (Table 1); format: biochemical
CDK7, sequence (P50613 whole entry, looked up): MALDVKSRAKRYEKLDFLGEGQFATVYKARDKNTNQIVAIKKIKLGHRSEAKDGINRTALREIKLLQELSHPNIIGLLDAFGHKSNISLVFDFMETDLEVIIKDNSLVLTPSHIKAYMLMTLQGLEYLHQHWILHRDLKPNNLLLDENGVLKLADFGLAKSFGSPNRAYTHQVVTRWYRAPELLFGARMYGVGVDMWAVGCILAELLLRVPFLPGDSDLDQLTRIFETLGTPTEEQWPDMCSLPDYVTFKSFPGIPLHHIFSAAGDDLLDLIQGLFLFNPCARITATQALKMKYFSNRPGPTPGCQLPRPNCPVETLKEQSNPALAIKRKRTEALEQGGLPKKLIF
CDK7, sequence (P51946 whole entry partner, looked up): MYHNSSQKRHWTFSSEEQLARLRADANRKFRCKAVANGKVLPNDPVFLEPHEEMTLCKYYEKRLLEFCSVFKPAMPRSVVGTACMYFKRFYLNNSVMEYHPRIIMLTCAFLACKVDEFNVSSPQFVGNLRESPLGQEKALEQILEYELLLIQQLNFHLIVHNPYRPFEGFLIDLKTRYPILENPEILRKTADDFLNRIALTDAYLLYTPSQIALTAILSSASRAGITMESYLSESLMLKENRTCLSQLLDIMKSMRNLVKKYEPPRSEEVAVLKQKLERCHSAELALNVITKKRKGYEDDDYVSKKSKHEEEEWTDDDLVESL
CDK7, sequence (P51948 whole entry partner, looked up): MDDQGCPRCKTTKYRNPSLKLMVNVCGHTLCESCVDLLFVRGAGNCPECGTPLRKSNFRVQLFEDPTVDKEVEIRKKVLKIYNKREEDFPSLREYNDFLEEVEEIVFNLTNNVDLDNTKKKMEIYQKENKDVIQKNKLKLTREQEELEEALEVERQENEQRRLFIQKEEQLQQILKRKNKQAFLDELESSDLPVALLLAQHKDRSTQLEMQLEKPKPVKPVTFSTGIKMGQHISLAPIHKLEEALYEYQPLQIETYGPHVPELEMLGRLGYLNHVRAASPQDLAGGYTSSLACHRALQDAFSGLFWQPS
Procedure: In vitro kinase assays with immunoprecipitated proteins (or recombinant CAK complexes) were performed as follows. Kinase reactions were performed in 25 μL of final volume of reaction buffer (50 mM Hepes, pH 7.5, 150 mM NaCl, 10 mM MgCl2, 5% glycerol, 25 μM ATP, and 10 μCi of [γ-32P]ATP). Each reaction contained 1 μg of RNAP II. Incubation was at 30° C. for 30-45 min. Reactions were terminated by addition of 5 μL of 5×SDS-PAGE sample buffer and incubated at 95° C. for 5 min. Reactions were analyzed by SDS-PAGE, and the dried gel was exposed to film or PhosphorImager plate.

[7] = tested on: SK-ES; assay: Proliferation assay, CellTiter-Glo, 72 hour; format: cell-based; details: Ewing's sarcoma cell line, read-out: Inhibition of proliferation, SK-ES
[8] = tested on: A673; assay: Proliferation assay, CellTiter-Glo, 72 hour; format: cell-based; details: Ewing's sarcoma cell line, read-out: Inhibition of proliferation, A673
[9] = tested on: MNNG-HOS Cl#5; assay: Proliferation assay, CellTiter-Glo, 72 hour; format: cell-based; details: osteosarcoma cell line, read-out: Inhibition of proliferation, MNNG-HOS Cl#5
[10] = target: IRAK1 (Homo sapiens (Human), UniProt P51617); assay: Life Technologies Adapta kinase assay, IRAK1; format: biochemical; details: superscript b (footnote not given; tested at 100 nM and 1 μM)
IRAK1, sequence (P51617 whole entry): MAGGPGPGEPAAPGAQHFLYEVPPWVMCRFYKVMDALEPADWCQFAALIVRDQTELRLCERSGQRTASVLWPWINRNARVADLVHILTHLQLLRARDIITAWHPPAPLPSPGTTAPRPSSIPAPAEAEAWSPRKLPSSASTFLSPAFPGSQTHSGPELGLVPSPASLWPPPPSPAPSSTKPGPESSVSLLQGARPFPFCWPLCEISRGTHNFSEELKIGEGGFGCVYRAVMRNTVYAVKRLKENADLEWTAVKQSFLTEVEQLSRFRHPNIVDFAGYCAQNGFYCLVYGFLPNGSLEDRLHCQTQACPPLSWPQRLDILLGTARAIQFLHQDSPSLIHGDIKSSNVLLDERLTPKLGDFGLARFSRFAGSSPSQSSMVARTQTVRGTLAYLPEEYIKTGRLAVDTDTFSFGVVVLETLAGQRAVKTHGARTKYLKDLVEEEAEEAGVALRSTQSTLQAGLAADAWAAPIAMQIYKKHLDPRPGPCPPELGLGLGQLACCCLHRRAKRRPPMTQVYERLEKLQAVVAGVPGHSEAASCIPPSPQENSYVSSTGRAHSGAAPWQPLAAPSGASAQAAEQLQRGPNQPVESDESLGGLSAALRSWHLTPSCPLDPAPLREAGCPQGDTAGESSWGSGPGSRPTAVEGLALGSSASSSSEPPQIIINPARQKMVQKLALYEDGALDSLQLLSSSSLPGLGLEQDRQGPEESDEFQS

[11] = tested on: Hs822T; assay: Proliferation assay, CellTiter-Glo, 72 hour; format: cell-based; details: Ewing's sarcoma cell line, read-out: Inhibition of proliferation, Hs822T
[12] = tested on: MCF7; assay: Proliferation assay, CellTiter-Glo, 72 hour; format: cell-based; details: breast cancer cell line, read-out: Inhibition of proliferation, MCF7
[13] = tested on: MDA-MB231; assay: Proliferation assay, CellTiter-Glo, 72 hour; format: cell-based; details: breast cancer cell line, read-out: Inhibition of proliferation, MDA-MB231
[14] = target: MLK3 (Homo sapiens (Human), UniProt Q16584); assay: Life Technologies LanthaScreen Eu kinase assay, MLK3; format: binding
MLK3, sequence (Q16584 whole entry): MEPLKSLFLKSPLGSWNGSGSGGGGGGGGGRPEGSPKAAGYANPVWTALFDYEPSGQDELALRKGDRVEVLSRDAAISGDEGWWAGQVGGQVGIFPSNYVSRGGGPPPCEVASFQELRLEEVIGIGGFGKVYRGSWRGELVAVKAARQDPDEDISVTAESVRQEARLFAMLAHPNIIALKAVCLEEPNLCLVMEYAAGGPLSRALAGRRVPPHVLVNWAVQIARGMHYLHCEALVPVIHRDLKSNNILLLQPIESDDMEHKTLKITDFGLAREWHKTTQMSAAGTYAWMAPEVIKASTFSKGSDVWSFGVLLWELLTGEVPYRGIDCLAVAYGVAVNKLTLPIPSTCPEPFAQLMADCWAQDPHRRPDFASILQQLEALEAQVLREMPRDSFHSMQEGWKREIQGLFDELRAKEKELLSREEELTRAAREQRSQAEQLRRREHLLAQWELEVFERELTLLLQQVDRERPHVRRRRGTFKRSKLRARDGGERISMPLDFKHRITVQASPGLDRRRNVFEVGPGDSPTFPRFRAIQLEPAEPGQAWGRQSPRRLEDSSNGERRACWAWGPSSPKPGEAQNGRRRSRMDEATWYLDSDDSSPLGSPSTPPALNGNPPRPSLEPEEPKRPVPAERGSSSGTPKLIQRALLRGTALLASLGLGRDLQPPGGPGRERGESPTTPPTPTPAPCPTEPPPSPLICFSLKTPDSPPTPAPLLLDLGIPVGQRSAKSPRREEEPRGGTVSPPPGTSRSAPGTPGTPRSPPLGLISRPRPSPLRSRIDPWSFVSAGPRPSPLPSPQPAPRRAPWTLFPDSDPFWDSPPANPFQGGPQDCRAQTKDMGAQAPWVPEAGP

[15] = tested on: RD-ES; assay: Proliferation assay, CellTiter-Glo, 72 hour; format: cell-based; details: Ewing's sarcoma cell line, read-out: Inhibition of proliferation, RD-ES
[16] = tested on: Hs863T; assay: Proliferation assay, CellTiter-Glo, 72 hour; format: cell-based; details: Ewing's sarcoma cell line, read-out: Inhibition of proliferation, Hs863T
[17] = tested on: THP-1; assay: Proliferation assay, CellTiter-Glo, 72 hour; format: cell-based; details: blood cancer cell line, read-out: Inhibition of proliferation, THP-1
[18] = tested on: HL60; assay: Proliferation assay, CellTiter-Glo, 72 hour; format: cell-based; details: blood cancer cell line, read-out: Inhibition of proliferation, HL60
[19] = tested on: T47D; assay: Proliferation assay, CellTiter-Glo, 72 hour; format: cell-based; details: breast cancer cell line, read-out: Inhibition of proliferation, T47D
[20] = tested on: hTERT-HME1; assay: Proliferation assay, CellTiter-Glo, 72 hour; format: cell-based; details: immortalized normal mammary epithelial cell line, read-out: Inhibition of proliferation, hTERT-HME1
[21] = tested on: MCF10A; assay: Proliferation assay, CellTiter-Glo, 72 hour; format: cell-based; details: non-tumorigenic breast epithelial cell line, read-out: Inhibition of proliferation, MCF10A

Structure (SMILES): Cc1ccc(Nc2ncc(C)c(-c3c[nH]c4ccccc34)n2)cc1NC(=O)c1ccc(NC(=O)/C=C/CN(C)C)cc1 [Formula I-20]
- IC50 [1]: < 500 nM
- IC50 [2]: 500 to 5000 nM
- IC50 [3]: < 500 nM
- IC50 [4]: > 5 µM
- IC50 [5]: < 500 nM
- IC50 [6]: 20.9 nM
- IC50 [7]: < 500 nM
- IC50 [8]: < 500 nM
- IC50 [9]: 500 to 5000 nM
- Percent inhibition, IRAK1^b [10]: C (less than 50% inhibition)
- IC50 [11]: < 500 nM
- IC50 [12]: < 500 nM
- IC50 [13]: < 500 nM
- IC50 ([14]; read-out: Calculated IC50, MLK3): < 100 nM
- Percent inhibition, MLK3^b ([14]; superscript b (footnote not given; tested at 100 nM and 1 μM)): C (less than 50% inhibition)
- IC50 [15]: < 500 nM
- IC50 [16]: < 500 nM
- IC50 [17]: < 500 nM
- IC50 [18]: < 500 nM
- IC50 [19]: 500 to 5000 nM
- IC50 [20]: < 500 nM
- IC50 [21]: < 500 nM
